This assay deals with T1, LATS2 (Homo sapiens, UniProt Q9NRM7).
T1 sequence (Q9NRM7 1-1088): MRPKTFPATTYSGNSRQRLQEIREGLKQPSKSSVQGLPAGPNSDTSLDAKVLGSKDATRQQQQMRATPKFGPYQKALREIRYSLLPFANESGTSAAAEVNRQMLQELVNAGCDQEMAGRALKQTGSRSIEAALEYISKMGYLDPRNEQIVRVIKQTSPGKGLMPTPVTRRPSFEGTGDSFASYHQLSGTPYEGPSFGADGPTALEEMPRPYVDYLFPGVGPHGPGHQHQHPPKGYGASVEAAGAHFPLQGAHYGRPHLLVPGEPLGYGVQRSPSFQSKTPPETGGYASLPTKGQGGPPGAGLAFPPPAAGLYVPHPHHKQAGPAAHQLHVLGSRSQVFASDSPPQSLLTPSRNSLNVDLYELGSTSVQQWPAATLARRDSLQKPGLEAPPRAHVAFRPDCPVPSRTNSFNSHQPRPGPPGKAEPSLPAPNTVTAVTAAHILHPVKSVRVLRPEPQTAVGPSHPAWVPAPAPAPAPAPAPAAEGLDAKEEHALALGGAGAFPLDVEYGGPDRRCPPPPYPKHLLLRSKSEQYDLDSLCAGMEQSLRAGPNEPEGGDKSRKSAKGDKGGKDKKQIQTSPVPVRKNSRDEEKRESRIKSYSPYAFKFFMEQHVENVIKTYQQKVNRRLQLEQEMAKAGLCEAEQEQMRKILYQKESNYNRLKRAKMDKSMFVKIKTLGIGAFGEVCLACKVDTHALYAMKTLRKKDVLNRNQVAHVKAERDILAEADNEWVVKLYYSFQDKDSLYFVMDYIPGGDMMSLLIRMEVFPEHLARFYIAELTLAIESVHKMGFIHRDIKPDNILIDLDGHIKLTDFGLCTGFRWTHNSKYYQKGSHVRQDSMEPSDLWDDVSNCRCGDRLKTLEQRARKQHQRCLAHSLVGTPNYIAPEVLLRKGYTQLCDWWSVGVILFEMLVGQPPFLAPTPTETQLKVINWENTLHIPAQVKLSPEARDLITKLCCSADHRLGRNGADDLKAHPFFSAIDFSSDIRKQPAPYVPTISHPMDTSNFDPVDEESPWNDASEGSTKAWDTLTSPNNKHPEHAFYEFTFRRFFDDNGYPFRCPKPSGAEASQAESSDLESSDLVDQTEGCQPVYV
Nature of the assay: RBC HotSpot kinase assay (33P-ATP, P81 filter-binding), LATS2. The assay is classed as biochemical. The conditions noted are these: Table 28, biochemical kinase assay; read-out: LATS2 IC50. In short, it runs like this:
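Compounds were run as single 10-point titrations to give IC50 values in nM. Each kinase was mixed with substrate and cofactors in 20 mM Hepes pH 7.5 reaction buffer with 1% DMSO, then exposed to compound for 20 min. 33P-ATP was added for a 2 h room-temperature reaction, with activity measured by P81 filter binding.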

Each structure is given as a SMILES string.

By IC50 is commonly meant the concentration that gives 50% inhibition. As for `C[C@@H]1CNC[C@H](C)[C@@]1(O)c1ccc(-c2ccnc3[nH]cc(F)c23)cc1Cl` [Compound 1, (3S,4S,5R)-4-(2-chloro-4-(3-fluoro-1H-pyrrolo[2,3-b]pyridin-4-yl)phenyl)-3,5-dimethylpiperidin-4-ol], the IC50 worked out at 14.6 nM.

As for `C[C@@H]1CNC[C@H](C)[C@@]1(O)c1ccc(-c2ccnc3[nH]cc(F)c23)cc1` [Compound 2, (3R,4s,5S)-4-(4-(3-fluoro-1H-pyrrolo[2,3-b]pyridin-4-yl)phenyl)-3,5-dimethylpiperidin-4-ol], the IC50 was 12.5 nM.

For `C[C@@H]1CNC[C@H](C)[C@@]1(O)c1ccc(-c2ccnc3[nH]cc(F)c23)cc1F` [Compound 7, (3S,4s,5R)-4-(2-fluoro-4-(3-fluoro-1H-pyrrolo[2,3-b]pyridin-4-yl)phenyl)-3,5-dimethyl piperidin-4-ol], the IC50 worked out at 6.3 nM.

Regarding `C[C@@H]1CNC[C@H](C)[C@@]1(O)c1ccc(-c2ccnc3[nH]cc(F)c23)nc1` [Compound 8, (3S,4s,5R)-4-(6-(3-fluoro-1H-pyrrolo[2,3-b]pyridin-4-yl)pyridin-3-yl)-3,5-dimethylpiperidin-4-ol], the IC50 was 203 nM.

In the case of `Cc1cc(-c2ccnc3[nH]cc(F)c23)ccc1[C@@]1(O)[C@H](C)CNC[C@@H]1C` [Compound 9, (3S,4s,5R)-4-(4-(3-fluoro-1H-pyrrolo[2,3-b]pyridin-4-yl)-2-methylphenyl)-3,5-dimethylpiperidin-4-ol], the IC50 was 6.6 nM.

For `C[C@@H]1CNC[C@H](C)[C@@]1(O)c1c(F)cc(-c2ccnc3[nH]cc(F)c23)cc1F` [Compound 13], the IC50 stood at 7.2 nM.

On to `C[C@@H]1CNC[C@H](C)[C@@]1(O)c1ccc(-c2ccnc3[nH]cc(F)c23)cc1OC(F)(F)F` [Compound 14, (3S,4s,5R)-4-(4-(3-fluoro-1H-pyrrolo[2,3-b]pyridin-4-yl)-2-(trifluoromethoxy)phenyl)-3,5-dimethylpiperidin-4-ol], for which the IC50 was found to be 5.5 nM.

Regarding `C[C@@H]1CN(Cc2ccccn2)C[C@H](C)[C@@]1(O)c1c(F)cc(-c2ccnc3[nH]cc(F)c23)cc1F` [Compound 17, (3S,4s,5R)-4-(2,6-difluoro-4-(3-fluoro-1H-pyrrolo[2,3-b]pyridin-4-yl)phenyl)-3,5-dimethyl-1-(pyridin-2-ylmethyl)piperidin-4-ol], the IC50 was determined as 11.9 nM.

Take `C[C@@H]1CN(C)C[C@H](C)[C@@]1(O)c1cnc(-c2ccnc3[nH]cc(F)c23)cc1Cl` [Compound 22, (3S,4s,5R)-4-(4-chloro-6-(3-fluoro-1H-pyrrolo[2,3-b]pyridin-4-yl)pyridin-3-yl)-1,3,5-trimethylpiperidin-4-ol]: the IC50 came out at 4.1 nM.

As for `Cc1cc(-c2ccnc3[nH]cc(F)c23)ccc1[C@@]1(O)[C@H](C)CN(C2COC2)C[C@@H]1C` [Compound 24, (3S,4s,5R)-4-(4-(3-fluoro-1H-pyrrolo[2,3-b]pyridin-4-yl)-2-methylphenyl)-3,5-dimethyl-1-(oxetan-3-yl)piperidin-4-ol], the IC50 was 5.7 nM.

Take `Cc1cc(-c2ccnc3[nH]cc(F)c23)ccc1[C@@]1(O)[C@H](C)CN(C(C)C)C[C@@H]1C` [Compound 29, (3S,4s, 5R)-4-(4-(3-fluoro-1H-pyrrolo[2,3-b]pyridin-4-yl)-2-methylphenyl)-1-isopropyl-3,5-dimethylpiperidin-4-ol]: the IC50 is 2.2 nM.

As to `Cc1cc(-c2ccnc3[nH]cc(F)c23)cc(F)c1C1(O)[C@H](C)CN(C2COC2)C[C@@H]1C` (stereo partly drawn) [Compound 30, (3S,5R)-4-(2-fluoro-4-(3-fluoro-1H-pyrrolo[2,3-b]pyridin-4-yl)-6-methylphenyl)-3,5-dimethyl-1-(oxetan-3-yl)piperidin-4-ol], the IC50 was 9 nM.

In the case of `C[C@@H]1CN(C2CCS(=O)(=O)CC2)C[C@H](C)C1(O)c1c(F)cc(-c2ccnc3[nH]cc(F)c23)cc1F` (stereo partly drawn) [Compound 31, 4-((3S,5R)-4-(2,6-difluoro-4-(3-fluoro-1H-pyrrolo[2,3-b]pyridin-4-yl)phenyl)-4-hydroxy-3,5-dimethylpiperidin-1-yl)tetrahydro-2H-thiopyran 1,1-dioxide], the IC50 is 6.3 nM.

For the compound `C[C@@H]1CN(C)C[C@H](C)[C@@]1(O)c1ccc(-c2ccnc3[nH]cc(F)c23)cc1` [Compound 39, (3R,4s,5S)-4-(4-(3-fluoro-1H-pyrrolo[2,3-b]pyridin-4-yl)phenyl)-1,3,5-trimethylpiperidin-4-ol], the IC50 was found to be 24.7 nM.

`C[C@@H]1CN(C)C[C@H](C)[C@@]1(O)c1ccc(-c2ccnc3[nH]cc(F)c23)nc1` [Compound 41, (3R,4s,5S)-4-(6-(3-fluoro-1H-pyrrolo[2,3-b]pyridin-4-yl)pyridin-3-yl)-1,3,5-trimethylpiperidin-4-ol]: the concentration for half-maximal inhibition (IC50) came out at 268 nM.

Turning to `C[C@@H]1CN(C2COC2)C[C@H](C)[C@@]1(O)c1c(F)cc(-c2ccnc3[nH]cc(F)c23)cc1F` [Compound 45, (3S,4s,5R)-4-(2,6-difluoro-4-(3-fluoro-1H-pyrrolo[2,3-b]pyridin-4-yl)phenyl)-3, S-dimethyl-1-(oxetan-3-yl)piperidin-4-ol], the IC50 was determined as 9.8 nM.

As for `C[C@@H]1CN(C2CCC2)C[C@H](C)[C@@]1(O)c1c(F)cc(-c2ccnc3[nH]cc(F)c23)cc1F` [Compound 46, (3R,4s,5S)-1-cyclobutyl-4-(2,6-difluoro-4-(3-fluoro-1H-pyrrolo[2,3-b]pyridin-4-yl)phenyl)-3,5-dimethylpiperidin-4-ol], the IC50 was determined as 4 nM.

With `Cc1cc(-c2ccnc3[nH]cc(F)c23)ncc1[C@@]1(O)[C@H](C)CN(C2CCC2)C[C@@H]1C` [Compound 48, (3R,4s,5S)-1-cyclobutyl-4-(6-(3-fluoro-1H-pyrrolo[2,3-b]pyridin-4-yl)-4-methylpyridin-3-yl)-3,5-dimethylpiperidin-4-ol], the IC50 came out at 16.1 nM.

In the case of `Cc1cc(-c2ccnc3[nH]cc(F)c23)ncc1[C@@]1(O)[C@H](C)CN(C2CCS(=O)(=O)CC2)C[C@@H]1C` [Compound 51, 4-((3R,4s,5S)-4-(6-(3-fluoro-1H-pyrrolo[2,3-b]pyridin-4-yl)-4-methylpyridin-3-yl)-4-hydroxy-3,5-dimethylpiperidin-1-yl)tetrahydro-2H-thiopyran 1,1-dioxide], the half-inhibitory concentration (IC50) is 4250 nM.

For `Cc1cc(-c2ccnc3[nH]cc(F)c23)ccc1[C@@]1(O)[C@H](C)CN(C2CCC2)C[C@@H]1C` [Compound 54, (3R,4s,5S)-1-cyclobutyl-4-(4-(3-fluoro-1H-pyrrolo[2,3-b]pyridin-4-yl)-2-methylphenyl)-3,5-dimethylpiperidin-4-ol], the IC50 turned out to be 2.3 nM.

As to `Cc1cc(-c2ccnc3[nH]cc(F)c23)ccc1[C@@]1(O)[C@H](C)CN(C2CCS(=O)(=O)CC2)C[C@@H]1C` [Compound 55, 4-((3R,4s, 5S)-4-(4-(3-fluoro-1H-pyrrolo[2,3-b]pyridin-4-yl)-2-methylphenyl)-4-hydroxy-3,5S-dimethylpiperidin-1-yl)tetrahydro-2H-thiopyran 1,1-dioxide], the IC50 amounted to 12.1 nM.

For the compound `Cc1cc(-c2ccnc3[nH]cc(F)c23)cc(F)c1[C@@]1(O)[C@H](C)CN(C2CCS(=O)(=O)CC2)C[C@@H]1C` [Compound 57, 4-((3R,4s,5S)-4-(2-fluoro-4-(3-fluoro-1H-pyrrolo[2,3-b]pyridin-4-yl)-6-methylphenyl)-4-hydroxy-3,5-dimethylpiperidin-1-yl)tetrahydro-2H-thiopyran 1,1-dioxide], the IC50 was 5.3 nM.

As for `C[C@@H]1CN(C(=O)CN)C[C@H](C)[C@@]1(O)c1c(F)cc(-c2ccnc3[nH]cc(F)c23)cc1F` [Compound 58], the IC50 amounted to 11.1 nM.

Consider `Cc1cc(-c2ccnc3[nH]cc(F)c23)ccc1[C@@]1(O)[C@H](C)CN(C(=O)CN)C[C@@H]1C` [Compound 60, 2-amino-1-((3R,4s,5S)-4-(4-(3-fluoro-1H-pyrrolo[2,3-b]pyridin-4-yl)-2-methylphenyl)-4-hydroxy-3,5-dimethylpiperidin-1-yl)ethan-1-one], for which the IC50 came out at 6.7 nM.

`Cc1cc(-c2ccnc3[nH]cc(F)c23)cc(F)c1[C@@]1(O)[C@H](C)CN(C(=O)CN)C[C@@H]1C` [Compound 61, 2-amino-1-((3R,4s,5S)-4-(2-fluoro-4-(3-fluoro-1H-pyrrolo[2,3-b]pyridin-4-yl)-6-methylphenyl)-4-hydroxy-3,5-dimethylpiperidin-1-yl)ethan-1-one]: the IC50 worked out at 3.2 nM.

Values taken from patent US20250361230A1, “LATS Inhibitors and Uses Thereof” (The USA, as Represented by the Secretary, Dept. of Heath …, priority 2022, published 2025).
